The test has as its target ATX (human His-tagged) (Homo sapiens (Human), UniProt Q13822). Nature of the test: Human ATX enzyme inhibition assay (fluorescence quenching, MR121 substrate). The format is biochemical. Particulars: 30 nM ATX, 1 μM MR121 substrate, 30° C., pH 8.0. The procedure:
Human ATX Enzyme Inhibition Assay
ATX inhibition was measured by a fluorescence quenching assay using a specifically labeled substrate analogue (MR121 substrate). To obtain this MR121 substrate, BOC and TBS protected 6-amino-hexanoic acid (R)-3-({2-[3-(2-{2-[2-(2-amino-ethoxy)-ethoxy]-ethoxy}-ethoxy)-propionylamino]-ethoxy}-hydroxy-phosphoryloxy)-2-hydroxy-propyl ester (Ferguson et al., Org Lett 2006, 8 (10), 2023) was labeled with MR121 fluorophore (CAS 185308-24-1, 1-(3-carboxypropyl)-11-ethyl-1,2,3,4,8,9,10,11-octahydro-dipyrido[3,2-b:2′,3′-i]phenoxazin-13-ium) on the free amine of the ethanolamine side and then, after deprotection, subsequently with tryptophan on the side of the aminohexanoic acid.
Assay working solutions were made as follows:
Assay buffer (50 mM Tris-HCl, 140 mM NaCl, 5 mM KCl, 1 mM CaCl2, 1 mM MgCl2, 0.01% Triton-X-100, pH 8.0;
ATX solution: ATX (human His-tagged) stock solution (1.08 mg/mL in 20 mM bicine, pH 8.5, 0.15 M NaCl, 10% glycerol, 0.3% CHAPS, 0.02% NaN3), diluted to 1.4-2.5× final concentration in assay buffer;
MR121 substrate solution: MR121 substrate stock solution (800 μM MR121 substrate in DMSO), diluted to 2-5× final concentration in assay buffer.
Test compounds (10 mM stock in DMSO, 8 μL) were obtained in 384 well sample plates (Corning Costar #3655) and diluted with 8 μL DMSO. Row-wise serial dilutions were made by transferring 8 μL cpd solution to the next row up to row O. The compound and control solutions were mixed five times and 2 μL were transferred to 384 well assay plates (Corning Costar #3702). Then, 15 μL of 41.7 nM ATX solution was added (30 nM final concentration), mixed five times and then incubated for 15 minutes at 30° C. 10 μL of MR121 substrate solution was added (1 μM final concentration), mixed 30 times and then incubated for 15 minutes at 30′C.

Turning to `CC(C)Oc1cc(C(=O)N2C[C@@H]3[C@H]4CN(C(=O)c5ccc(S(N)(=O)=O)cc5)C[C@H]4[C@@H]3C2)cc2ccccc12` [Example 1.062, 4-[(3aS,3bS,6aR,6bR)-5-(4-isopropoxy-naphthalene-2-carbonyl)-octahydro-cyclobuta[1,2-c;3,4-c′]dipyrrole-2-carbonyl]benzenesulfonamide], half-maximal inhibition (IC50) required 9 nM.

For `O=C(c1ccc2[nH]ccc2c1)N1C[C@@H]2[C@H](C1)[C@H]1CN(C(=O)c3ccc4[nH]nnc4c3)C[C@@H]21` [Example 1.043, [(3aS,3bS,6aR,6bR)-5-(1H-benzotriazole-5-carbonyl)-octahydro-cyclobuta[1,2-c;3,4-c′]dipyrrol-2-yl]-(1H-indol-5-yl)-methanone], the midpoint of inhibition, the IC50, lay at 1410 nM.

Take `CCOc1cc(C(=O)N2C[C@@H]3[C@H]4CN(C(=O)c5ccc6[nH]nnc6c5)C[C@H]4[C@@H]3C2)nc2cc(Cl)ccc12` [Example 1.076, [(3aR,3bS,6aR,6bS)-5-(1H-benzotriazole-5-carbonyl)-octahydro-cyclobuta [1,2-c;3,4-c′]dipyrrol-2-yl]-(7-chloro-4-ethoxy-quinolin-2-yl)-methanone]: the IC50 (as a rule, the midpoint of a concentration-inhibition curve) is 12.5 nM.

As to `CCOc1cc(C(=O)N2C[C@@H]3[C@H](C2)[C@H]2CN(C(=O)c4ccc5[nH]nnc5n4)C[C@@H]32)nc2ccc(C(F)(F)F)cc12` [Example 1.091, [(3aS,3bS,6aR,6bR)-5-(4-ethoxy-6-trifluoromethyl-quinoline-2-carbonyl)-octahydro-cyclobuta[1,2-c;3,4-c′]dipyrrol-2-yl]-(1H-[1,2,3]triazolo[4,5-b]pyridin-5-yl)-methanone], 17 nM corresponded to half-maximal inhibition (IC50).

As to `O=C(c1cc2ccccc2c(OCC2CC2)n1)N1C[C@@H]2[C@H](C1)[C@H]1CN(C(=O)[C@@H]3CCc4[nH]nnc4C3)C[C@@H]21` [Example 1.064, (1-cyclopropylmethoxy-isoquinolin-3-yl)-[(3aR,3bS,6aR,6bS)-5-((R)-4,5,6,7-tetrahydro-1H-benzotriazole-5-carbonyl)-octahydro-cyclobuta[1,2-c;3,4-c′]dipyrrol-2-yl]-methanone], the IC50 was determined as 1 nM.

As for `O=C(c1ccc2[nH]nnc2c1)N1C[C@@H]2[C@H](C1)[C@H]1CN(C(=O)c3ccc4ccccc4n3)C[C@@H]21` [Example 1.038, [(3aR,3bS,6aR,6bS)-5-(1H-benzotriazole-5-carbonyl)-octahydro-cyclobuta[1,2-c;3,4-c′]dipyrrol-2-yl]-quinolin-2-yl-methanone], the half-inhibitory concentration (IC50) is 687 nM.

`O=C(c1ccc2[nH]nnc2c1)N1C[C@@H]2[C@H](C1)[C@H]1CN(C(=O)c3cc(OCC(F)(F)F)c4ccccc4n3)C[C@@H]21` [Example 1.084, (1H-benzotriazol-5-yl)-{(3aS,3bR,6aS,6bR)-5-[4-(2,2,2-trifluoro-ethoxy)-quinoline-2-carbonyl]-octahydro-cyclobuta[1,2-c;3,4-c′]dipyrrol-2-yl}-methanone] came in with an IC50 of 5 nM.

As to `Cc1oc(-c2ccc(Cl)cc2)nc1C(=O)N1C[C@@H]2[C@H]3CN(C(=O)c4ccc5[nH]nnc5c4)C[C@H]3[C@@H]2C1` [Example 1.030, [(3aR,3bS,6aR,6bS)-5-(1H-benzotriazole-5-carbonyl)-octahydro-cyclobuta[1,2-c;3,4-c′]dipyrrol-2-yl]-[2-(4-chloro-phenyl)-5-methyl-oxazol-4-yl]-methanone], inhibition was half-maximal at 104 nM (IC50).

Turning to `CCOc1nc(C(=O)N2C[C@@H]3[C@H](C2)[C@H]2CN(C(=O)c4ccc5[nH]nnc5n4)C[C@@H]32)cc2ccccc12` [Example 1.092, [(3aS,3bS,6aR,6bR)-5-(1-ethoxy-isoquinoline-3-carbonyl)-octahydro-cyclobuta[1,2-c;3,4-c′]dipyrrol-2-yl]-(1H-[1,2,3]triazolo[4,5-b]pyridin-5-yl)-methanone], the 50% inhibitory concentration (IC50) came out at 18 nM.

The molecule `O=C(c1ccc(-c2ccc(F)cc2)cc1)N1C[C@@H]2[C@H](C1)[C@H]1CN(C(=O)c3ccc4[nH]nnc4c3)C[C@@H]21` [Example 1.002, [(3aS,3bS,6aR,6bR)-5-(1H-benzotriazole-5-carbonyl)-octahydro-cyclobuta[1,2-c;3,4-c′]dipyrrol-2-yl]-(4′-fluoro-biphenyl-4-yl)-methanone] came in with an IC50 of 64 nM.

Regarding `COc1nc(C(=O)N2C[C@@H]3[C@H]4CN(C(=O)c5ccc6[nH]nnc6c5)C[C@H]4[C@@H]3C2)cc2ccccc12` [Example 1.046, [(3aR,3bS,6aR,6bS)-5-(1H-benzotriazole-5-carbonyl)-octahydro-cyclobuta[1,2-c;3,4-c′]dipyrrol-2-yl]-(1-methoxy-isoquinolin-3-yl)-methanone], 28 nM corresponded to half-maximal inhibition (IC50).

The molecule `Cc1ccc2cc(C(=O)N3C[C@@H]4[C@H]5CN(C(=O)c6ccc7[nH]nnc7c6)C[C@H]5[C@@H]4C3)[nH]c2c1` [Example 1.035, [(3aR,3bS,6aR,6bS)-5-(1H-benzotriazole-5-carbonyl)-octahydro-cyclobuta[1,2-c;3,4-c′]dipyrrol-2-yl]-(6-methyl-1H-indol-2-yl)-methanone] registered an IC50 of 243 nM.

In the case of `CC(C)Oc1cc(C(=O)N2C[C@@H]3[C@H](C2)[C@H]2CN(C(=O)[C@@H]4CCc5[nH]nnc5C4)C[C@@H]32)cc2ccccc12` [Example 1.059, (4-isopropoxy-naphthalen-2-yl)-[(3aR,3bS,6aR,6bS)-5-((R)-4,5,6,7-tetrahydro-1H-benzotriazole-5-carbonyl)-octahydro-cyclobuta[1,2-c;3,4-c′]dipyrrol-2-yl]-methanone], the 50% inhibitory concentration (IC50) was determined as 1.3 nM.

Consider `Cc1ccc2ccc(C(=O)N3C[C@@H]4[C@H](C3)[C@H]3CN(C(=O)c5ccc6[nH]nnc6c5)C[C@@H]43)cc2c1` [Example 1.014, [(3aS,3bS,6aR,6bR)-5-(1H-benzotriazole-5-carbonyl)-octahydro-cyclobuta[1,2-c;3,4-c′]dipyrrol-2-yl]-(7-methyl-naphthalen-2-yl)-methanone], for which the concentration for half-maximal inhibition (IC50) is 45 nM.

Take `O=C(c1ccc2[nH]nnc2c1)N1C[C@@H]2[C@H](C1)[C@H]1CN(C(=O)c3ccc(OCC(F)(F)F)cn3)C[C@@H]21` [Example 1.101, (1H-benzotriazol-5-yl)-{(3aS,3bR,6aS,6bR)-5-[5-(2,2,2-trifluoro-ethoxy)-pyridine-2-carbonyl]-octahydro-cyclobuta[1,2-c;3,4-c′]dipyrrol-2-yl}-methanone]: the IC50 was 4430 nM.

`O=C(c1ccc2[nH]nnc2c1)N1C[C@@H]2[C@H](C1)[C@H]1CN(C(=O)c3cccc(OCC(F)(F)F)n3)C[C@@H]21` [Example 1.098, (1H-benzotriazol-5-yl)-{(3aS,3bR,6aS,6bR)-5-[6-(2,2,2-trifluoro-ethoxy)-pyridine-2-carbonyl]-octahydro-cyclobuta[1,2-c;3,4-c′]dipyrrol-2-yl}-methanone] displayed an IC50 of 859 nM.

Turning to `Cn1c(C(=O)N2C[C@@H]3[C@H]4CN(C(=O)c5ccc6[nH]nnc6c5)C[C@H]4[C@@H]3C2)cc2ccc(Cl)cc21` [Example 1.034, [(3aR,3bS,6aR,6bS)-5-(1H-benzotriazole-5-carbonyl)-octahydro-cyclobuta[1,2-c;3,4-c′]dipyrrol-2-yl]-(6-chloro-1-methyl-1H-indol-2-yl)-methanone], it took 489 nM to reach half-maximal inhibition (IC50).

The molecule `O=C(c1ccc2[nH]nnc2c1)N1C[C@@H]2[C@H](C1)[C@H]1CN(C(=O)c3cc4ccccc4[nH]3)C[C@@H]21` [Example 1.023, [(3aR,3bS,6aR,6bS)-5-(1H-benzotriazole-5-carbonyl)-octahydro-cyclobuta[1,2-c;3,4-c′]dipyrrol-2-yl]-(1H-indol-2-yl)-methanone] gave an IC50 of 1470 nM.

In the case of `O=C(c1ccc2[nH]nnc2c1)N1C[C@@H]2[C@H](C1)[C@H]1CN(C(=O)c3cc4cc(Cl)ccc4[nH]3)C[C@@H]21` [Example 1.048, [(3aR,3bS,6aR,6bS)-5-(1H-benzotriazole-5-carbonyl)-octahydro-cyclobuta[1,2-c;3,4-c′]dipyrrol-2-yl]-(5-chloro-1H-indol-2-yl)-methanone], the IC50 was determined as 208 nM.

`O=C(c1ccc2[nH]nnc2c1)N1C[C@@H]2[C@H](C1)[C@H]1CN(C(=O)c3cc4ccc(Cl)cc4[nH]3)C[C@@H]21` [Example 1.033, [(3aR,3bS,6aR,6bS)-5-(1H-benzotriazole-5-carbonyl)-octahydro-cyclobuta[1,2-c;3,4-c′]dipyrrol-2-yl]-(6-chloro-1H-indol-2-yl)-methanone] came in with an IC50 of 104 nM.

With `O=C(/C=C/c1ccc(OC(F)(F)F)cc1)N1C[C@@H]2[C@H](C1)[C@H]1CN(C(=O)c3ccc4[nH]nnc4c3)C[C@@H]21` [Example 1.003, (E)-1-[(3aS,3bR,6aS,6bR)-5-(1H-benzotriazole-5-carbonyl)-octahydro-cyclobuta[1,2-c;3,4-c′]dipyrrol-2-yl]-3-(4-trifluoromethoxy-phenyl)-propenone], half-maximal inhibition (IC50) was put at 8.5 nM.

Values taken from patent publication US10849881B2, “Octahydro-cyclobuta[1,2-c;3,4-c′]dipyrrol-2-yl” (Hoffmann-La Roche Inc., priority 2013, dated 2020).
